In ChEMBL document CHEMBL3044921, “Synthesis, characterization, and SAR studies of new (1H-indol-3-yl)alkyl-3-(1H-indol-3-yl)propanamide derivatives as possible antimicrobial and antitubercular agents” (2013):
In brackets after ≈: the same amount, converted by molar mass.

What follows are molecules tested on Mycobacterium tuberculosis (assay: Antitubercular activity against multidrug-resistant Mycobacterium tuberculosis assessed as growth inhibition at 0.3125 to 5 ug/mL after 7 days by resazurin reduction test). Details: 168 h.
Assay type: functional

Row | SMILES | MIC
1 | Cc1c(CNC(=O)CCc2cn(C)c3ccc(Cl)cc23)c2cc(OC(F)(F)F)ccc2n1C | > 50 µg/mL
2 | Cn1cc(CCC(=O)NCc2c[nH]c3ccc(OC(F)(F)F)cc23)c2cc(Cl)ccc21 | 6.25 µg/mL (≈ 13.9 µM)
3 | Cc1[nH]c2ccc(OC(F)(F)F)cc2c1CNC(=O)CCc1cn(C)c2ccc(Cl)cc12 | > 50 µg/mL
4 | Cc1[nH]c2ccc(OC(F)(F)F)cc2c1CCCNC(=O)CCc1c[nH]c2ccc(Cl)cc12 | > 50 µg/mL
5 | Cc1c(CCCNC(=O)CCc2c[nH]c3ccc(Cl)cc23)c2cc(OC(F)(F)F)ccc2n1C | > 50 µg/mL
6 | Cc1c(CNC(=O)CCc2c[nH]c3ccc(Cl)cc23)c2cc(OC(F)(F)F)ccc2n1C | > 50 µg/mL
7 | Cn1cc(CCC(=O)NCc2cn(C)c3ccc(Cl)cc23)c2cc(Cl)ccc21 | > 50 µg/mL
8 | Cn1cc(CCC(=O)NCc2c[nH]c3ccc(Cl)cc23)c2cc(Cl)ccc21 | 6.25 µg/mL (≈ 15.6 µM)
9 | Cc1[nH]c2ccc(OC(F)(F)F)cc2c1CNC(=O)CCc1c[nH]c2ccc(Cl)cc12 | 6.25 µg/mL (≈ 13.9 µM)
10 | O=C(CCc1c[nH]c2ccc(Cl)cc12)NCc1c[nH]c2ccc(OC(F)(F)F)cc12 | > 50 µg/mL
11 | O=C(CCc1c[nH]c2ccc(Cl)cc12)NCc1c[nH]c2ccc(Cl)cc12 | 6.25 µg/mL (≈ 16.2 µM)
12 | CO[C@H]1/C=C/O[C@@]2(C)Oc3c(C)c(O)c4c(O)c(c(/C=N/N5CCN(C)CC5)c(O)c4c3C2=O)NC(=O)/C(C)=C\C=C\[C@H](C)[C@H](O)[C@@H](C)[C@@H](O)[C@@H](C)[C@H](OC(C)=O)[C@@H]1C [RIFAMPIN] | 25 µg/mL (≈ 30.4 µM)
13 | Cn1cc(CNC(=O)CCc2c[nH]c3ccc(Cl)cc23)c2cc(Cl)ccc21 | > 50 µg/mL
14 | Cn1cc(CCCNC(=O)CCc2c[nH]c3ccc(Cl)cc23)c2cc(OC(F)(F)F)ccc21 | 12.5 µg/mL (≈ 26.2 µM)
15 | Cn1cc(CCCNC(=O)CCc2cn(C)c3ccc(Cl)cc23)c2cc(Cl)ccc21 | 25 µg/mL (≈ 56.5 µM)
16 | Cc1c(CCCNC(=O)CCc2cn(C)c3ccc(Cl)cc23)c2cc(OC(F)(F)F)ccc2n1C | 1.25 µg/mL (≈ 2.47 µM)
17 | Cn1cc(CCC(=O)NCCCc2c[nH]c3ccc(Cl)cc23)c2cc(Cl)ccc21 | 2.5 µg/mL (≈ 5.84 µM)
18 | Cn1cc(CCC(=O)NCCCc2c[nH]c3ccc(OC(F)(F)F)cc23)c2cc(Cl)ccc21 | 6.25 µg/mL (≈ 13.1 µM)
19 | NNC(=O)c1ccncc1 [ISONIAZID] | 12.5 µg/mL (≈ 91.1 µM)
